Experimental data as given in patent US8653048B2 (Sanlugen Pharmatech Ltd., priority 2009, dated 2014).

What was measured:
[1] = system: A549: a human lung cancer cell line; test: MTT analytical method, A549 cells; type: cell-based; conditions: 72 h
Excerpt: (§1) MTT analytical method was used to test the prodrugs for various tumor cells.
(§2) • 1) Cell lines: NCI-H460, A549, LOVO, HT-29, MDA-MB-231, SGC7901, HepG2 or BEL-7402 cell lines. Culture: adherent culturing in D-MEM (Hyclone, Inc.) containing 10% fetal calf serum. The initial cell concentration was about 3×10^5 /mL. The cell was passaged by 1:3 dilution in every 2-3 days. On the day before the test, the cell was passaged by 1:2 dilution, the cell concentration for the test was 5-10×10^5 /mL. • 2) Dissolution and dilution of compounds: according to the weight and molecular weight of the drugs provided, 100-200 μL of DMSO was added. Then normal saline was added to make the final diluted concentration of the drugs be 5 mM (Note that the final concentration of DMSO should not be more than 10%). • 3) D-MEM or RPMI 1640 cell culture medium, Gibco, Inc. • 4) Fetal calf serum Hyclone, Inc. • 5) Cell dissociation buffer, 0.25% Trypsin+0.02% EDTA. • 6) MTT solution, MTT Powder (Sigma) were dissolved in PBS buffer solution to make a solution of 5 mg/mL. The solution was filtered by a 0.22 μm micropore membrane and stored at −20° C. • 7) PBS buffer solution. • 8) 10% acidified SDS, 0.01N HCl. • 9) Centrifuge tubes, haustorial tubes etc. (BD, Inc.); 96-well plates (Costatr, Inc.) Procedures: • 1) Cell inoculation: Cells grown for 24 hours after passage, which cells were in good growth state, were used. The cells were harvested by the routine method. The cell concentration was adjust with a fresh culture solution to 2×10^5/mL (for adherent cells)-3×10^5/mL (for suspension cells). The adherent cells were inoculated at 100 μL/well and then cultivated in an incubator with 5% CO2 at 37° C. for 24 h. Thereafter the used culture solution was removed and 95 μL/well of fresh culture solution was added. The suspension cells were inoculated at 95 μL/well directly. • 2) Drugs treatment: 9 concentration grades were designed for every drug, and every concentration had 3 wells. The control group had 5 wells. The control group was tested simultaneously in each test. The final concentrations of a drug added were […], and 5 μL normal saline was added to the control group. • 3) Cell culture and detection: the cells were cultured in an incubator with 5% CO2 at 37° C. for 72 h after the drug was added, then 10 μL MTT was added to each well and the culture was continued for 4 h. 100 μL of 10% SDS (containing 0.01N HCl) was added to each well. After 24 h, the absorbance (A) of each well was determined by Bio-rad 680 ELISA with the detection wavelength of 570 nm and the reference wavelength of 630 nm. Calculation:
(§3) First, the absorbance (A) of each well was averaged (removing any data with big difference). […] A0 was the mean absorbance of the control wells. The effect curve of the drug concentration was drawn using EXCEL software and the drug concentration for 50% cell survival was calculated according to an appropriate computing methods.

[2] = system: NCI-H460: a human lung cancer cell line; test: MTT analytical method, NCI-H460 cells; type: cell-based; conditions: 72 h
Excerpt: as §1, §2, §3

[3] = system: HT29: a human colon cancer cell line; test: MTT analytical method, HT29 cells; type: cell-based; conditions: HT-29, 72 h
Excerpt: as §1, §2, §3

[4] = system: Bel7402: a human liver cancer cell line; test: MTT analytical method, Bel7402 cells; type: cell-based; conditions: Bel-7402, 72 h
Excerpt: as §1, §2, §3

[5] = system: HepG2: a human liver cancer cell line; test: MTT analytical method, HepG2 cells; type: cell-based; conditions: 72 h
Excerpt: as §1, §2, §3

[6] = system: SGC7901: a human gastric cancer line; test: MTT analytical method, SGC7901 cells; type: cell-based; conditions: SGC-7901, 72 h
Excerpt: as §1, §2, §3

[7] = system: MDA-MB-231: a human breast cancer line; test: MTT analytical method, MDA-MB-231 cells; type: cell-based; conditions: MDA-MB-231, MTT, 72 h
Excerpt: as §1, §2, §3

[8] = In vitro stability in simulated intestinal fluid (HPLC); type: physicochemical; conditions: for stability in simulated intestinal fluid (in words): 0-24 h; for HPLC peak area of drug / Degrade %: simulated intestinal fluid
[9] = Stability in human blood plasma (HPLC); type: in vitro ADME; conditions: for stability in blood plasma (in words): 0-12 h; for Degrade % / chromatography peak area of drug: plasma
Method: Isopropanol (1 mL) was then added into the blood sample and vortexed for 30 s and kept still for 5 min. 2.5 ml of EtOAc was added and votexed and centrifuged at 4000 rpm for 15 minutes. The supernatant was taken and dried by blowing in nitrogen. The dried sample was redissolved in 200 μL HPLC mobile phase solution. 20 μL sample was loaded to the HPLC.
The samples were processed using the standard method.

[10] = system: HepG2 tumor transplanted in nude mice; test: HepG2 tumor transplanted in nude mice, intravenous administration; type: in vivo, BALB/C nude mice; conditions: for weight loss rate: HepG2 nude mice; for effect on growth of HepG2 tumor (growth curve and tumor weight), in words: i.v., SL-01 10, 20, 40 mg/kg, Gem group
Method: (§4) 1. […] The drugs were packaged and stored at −20° C.
(§5) The treatment starting day was the first day (d0). […] The tumor tissues were removed and weighed. The inhibition rate of tumor growth was calculated.
4.2 The low, middle and high dosage of SL-01 in the treatment for HepG2 liver cancer cell line tumor growth transplanted in nude mice are 10, 20 and 40 mg/kg, respectively.

[11] = system: HT29 tumor transplanted in nude mice; test: HT29 tumor transplanted in nude mice, intravenous administration; conditions: for inhibitory rate (relative tumor volume) at the end of the experiments: HT29; for weight loss rate: 20 mg/kg i.v., d17, HT29 nude mice; for toxicity judged by body weight loss, in words: mouse, in vivo, iv
Method: as §4, §5

Row | SMILES | IC50 [1] | IC50 [2] | IC50 [3] | IC50 [4] | IC50 [5] | IC50 [6] | IC50 [7] | stability in simulated intestinal fluid (in words) [8] | HPLC peak area of drug ([8]; 0 min) | HPLC peak area of drug ([8]; 1 h) | HPLC peak area of drug ([8]; 2 h) | HPLC peak area of drug ([8]; 4 h) | HPLC peak area of drug ([8]; 6 h) | HPLC peak area of drug ([8]; 8 h) | HPLC peak area of drug ([8]; 12 h) | HPLC peak area of drug ([8]; 24 h) | stability in blood plasma (in words) [9] | chromatography peak area of drug ([9]; 0 min) | chromatography peak area of drug ([9]; 1 h) | chromatography peak area of drug ([9]; 2 h) | also measured
1 | CCCCCCCCCCCCOC(=O)c1nccnc1C(=O)Nc1ccn([C@@H]2O[C@H](CO)[C@@H](O)C2(F)F)c(=O)n1 [Compound 4, Dodecyl-3-((1-((2R,4R,5R)-3,3-difluoro-4-hydroxy-5-(hydroxymethyl)-tetrahydrofuran-2-yl)-2-oxo-1,2-dihydropyrimidin-4-yl)carbamoyl)pyrazine-2-carboxylate] | < 2 µM | < 2 µM | 2 µM | 8 µM | 6 µM | > 16 µM | > 16 µM | stable | 288987.906 | 231129.797 | 196319.828 | 245622.906 | 247957.219 | 239958.297 | 247782.500 | 256782.600 | degradable | 336275.344 | 326948.219 | 261917.094 | Degrade % ([9]; 0 min): 0%; Degrade % ([9]; 1 h): 2.77%; Degrade % ([9]; 2 h): 22.11%; Degrade % ([9]; 4 h): 46.99%; chromatography peak area of drug ([9]; 4 h): 178242.781; Degrade % ([9]; 6 h): 82.31%; chromatography peak area of drug ([9]; 6 h): 59465.750; Degrade % ([9]; 8 h): 89.64%; chromatography peak area of drug ([9]; 8 h): 43894.633; Degrade % ([9]; 12 h): 96.17%; chromatography peak area of drug ([9]; 12 h): 12894.514; weight loss rate ([10]; SL-01 high dosage 40 mg/kg i.v.): 3.5%; weight loss rate ([10]; SL-01 low dosage 10 mg/kg i.v.): 11.6%; weight loss rate ([10]; SL-01 middle dosage 20 mg/kg i.v.): 14%; effect on growth of HepG2 tumor (growth curve and tumor weight), in words [10]: neither SL-01 nor gemcitabine has shown an obvious inhibitory effect; inhibitory rate (relative tumor volume) at the end of the experiments ([11]; 20 mg/kg i.v. (Gem group; SL01 middle dosage group)): 23%; weight loss rate [11]: 8%; inhibitory rate (relative tumor volume) at the end of the experiments ([11]; SL01 high dosage group 40 mg/kg i.v.): 7%; toxicity judged by body weight loss, in words [11]: neither the gemcitabine positive control group nor SL-01 has obvious toxicity
2 | Nc1ccn([C@@H]2O[C@H](CO)[C@@H](O)C2(F)F)c(=O)n1 [Gemcitabine, gemcitabine, reference compound] | < 2 µM | < 1 µM | 7 µM | 4 µM | < 1 µM | > 16 µM | < 1 µM | degraded | 643704.938 | 465528.594 | 410685.313 | 257604.125 | 197106.406 | 149816.906 | 9873.897 | 5571.352 | stable | 562562.938 | 592859.625 | 466418.094 | Degrade % ([8]; 0 min): 0%; Degrade % ([8]; 1 h): 27.67%; Degrade % ([8]; 2 h): 36.2%; Degrade % ([8]; 4 h): 59.98%; Degrade % ([8]; 6 h): 69.37%; Degrade % ([8]; 8 h): 76.72%; Degrade % ([8]; 12 h): 98.46%; Degrade % ([8]; 24 h): 99.13%; chromatography peak area of drug ([9]; 4 h): 483743.594; chromatography peak area of drug ([9]; 6 h): 552648.313; chromatography peak area of drug ([9]; 8 h): 540059.125; chromatography peak area of drug ([9]; 12 h): 544300.688; weight loss rate ([10]; gemcitabine positive control): 9%; effect on growth of HepG2 tumor (growth curve and tumor weight), in words [10]: neither SL-01 nor gemcitabine has shown an obvious inhibitory effect; weight loss rate [11]: 4%; toxicity judged by body weight loss, in words [11]: neither the gemcitabine positive control group nor SL-01 has obvious toxicity
